Test results published in patent US9034825B2, “Treatment of myocardial injury with humanin analogs” (Albert Einstein College of Medicine of Yeshiva University, priority 2007, dated 2015).

Assays:
IGFBP-3 = IGFBP-3 (Homo sapiens, UniProt P17936); test: Dot blots probed with radiolabeled IGFBP-3; assay type: binding; settings: FIG. 17A
Procedure: For acute signaling studies, rats were injected ICV with either aCSF, 20 μg of HN or F6A (dissolved in aCSF) over 5 min, and sacrificed 30 min later. Tissue sample were obtained from mediobasal hypothalamus, liver and muscle. Samples were also obtained from these tissues at the end of the clamp and western blot analysis was performed as described previously (Muzumdar et al. 2003) The blots were scanned using the LI-COR Odyssey (LI-COR, Lincoln, Nebr., USA) and quantified using Odyssey 2.0 software based on direct fluorescence measurement. Dot blots were performed by blotting 50 ng of humanin, HN-analogues, and IGF on nitrocellulose, incubating with 125-I-labeled-IGFBP-3, autoradiography and scanning.

normal MEFs = test: Apoptosis ELISA in normal mouse embryonic fibroblasts; assay type: cell-based; settings: 24 hours, 100 nM of peptides
Procedure: (§1) Mouse embryonic fibroblasts derived from normal and IGFBP3 KO mice were used to test the effects of humanin and its analogues on survival. Apoptosis ELISA was used as an output measure and cells were treated for 24 hours with 100 nM of peptides. […] Thus, the HNGF6A humanin analogue has non-obvious properties that are different from previously described humanin derivatives and has increased potency as a result of its specific molecular alteration leading to reduced IGFBP-3 binding.

BP3KO MEFs = test: Apoptosis ELISA in IGFBP3 KO mouse embryonic fibroblasts; assay type: cell-based; settings: 24 hours, 100 nM of peptides
Procedure: as §1

NONcNZO10/LtJ mice = test: IP glucose tolerance test in NONcNZO10/LtJ mice; assay type: in vivo, mouse; settings: IP 25 microgram twice a day for 14 days; IP GTT on D15
Procedure: NONcNZO10/LtJ mice were injected IP with HNGF6A 25 microgram twice a day for 14 days. Mice were subjected to 6 hour fast followed by IP GTT on D15. Baseline glucose measurement was taken and the mice were injected IP with 0.5 mg/g glucose. Glucose was sampled at 0 and 90, 120 min.

Sprague-Dawley rats = test: Intravenous infusion of humanin or analogs during hyperinsulinemic clamp; assay type: in vivo, rat; settings: infused peripherally 0.0375 mg/kg/hr

Sequence of IGFBP-3 (P17936 28-291): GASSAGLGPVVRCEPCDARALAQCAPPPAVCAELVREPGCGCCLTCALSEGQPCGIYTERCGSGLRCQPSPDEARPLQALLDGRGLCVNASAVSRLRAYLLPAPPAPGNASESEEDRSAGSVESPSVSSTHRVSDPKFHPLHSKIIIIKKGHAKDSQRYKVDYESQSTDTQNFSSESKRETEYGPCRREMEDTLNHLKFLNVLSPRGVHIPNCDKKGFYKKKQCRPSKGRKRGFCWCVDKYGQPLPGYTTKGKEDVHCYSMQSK

## MAPRGASCLLLLTGEIDLPVKRRA (Humanin analog HNGF6A) [HN with alanine at 6th amino acid]
IGFBP-3
  ability to bind IGFBP-3: completely devoid of the ability to bind IGFBP-3
Normal MEFs
  potency on survival (Apoptosis ELISA): more potent
BP3KO MEFs
  potency on survival (Apoptosis ELISA): equal potency
NONcNZO10/LtJ mice
  glucose levels at 90 and 120 min: significantly lower
  glucose tolerance: significantly better glucose tolerance
Sprague-Dawley rats
  glucose infusion rates during clamp: significantly higher
Sprague-Dawley rats; clamp
  hepatic glucose production: suppressive effects
  peripheral glucose uptake: significant increase
